Assay results taken from patent publication US20060057669A1, “Inactive transcription factor tif-ia and uses thereof” (priority 2002, published 2006).

Assays:
[1] = test system: Pol I transcription; test: In vitro transcription: TIF-IA mutants restoring rDNA transcription of nuclear extract from density-arrested FM3A cells; type: biochemical, murine
Procedure: (A) Transcriptional activity of TIF-IA mutants in vitro. FLAG-tagged wild-type TIF-IA and the indicated single or double point mutants were overexpressed in HEK293T cells, immunopurified, and 20 and 40 ng were assayed for their capability to restore rDNA transcriptional activity of nuclear extract from density-arrested FM3A cells. The amount and purity of TIF-IA were estimated on silver-stained SDS-polyacrylamide gels and Western blots (data not shown).
(A) Transcriptional activity of TIF-IAS199A and TIF-IAS199D in vitro. FLAG-tagged wild-type TIF-IA and the indicated mutants were immunopurified from HEK293T cells, and 30 and 60 ng were assayed for their capability to restore transcriptional activity of nuclear extract from density-arrested FM3A cells. The amount and purity of TIF-IA were estimated on silver-stained SDS-polyacrylamide gels (data not shown).
(B) Transcriptional activity of TIF-IAS44A in vitro. FLAG-tagged wild-type TIF-IA and the indicated mutant were assayed for their transcriptional activity in vitro.
(§1) Nuclear extracts were prepared from exponentially growing (8×10^5 cells/ml), density-arrested or PD98059-treated (CN Bioscience, Bad Soden, Germany) 40 μM, 0.5 hr) or rapamycin-treated FM3A cells (ATCC, Manassas, USA). 25 μl assays contained 50 ng of template DNA (pMr600/EcoRI), 30 μg nuclear extract proteins and 12 mM Hepes-KOH, [pH8.0], 0.1 mM EDTA, 5 mM MgCl2, 80 mM KCl, 10 mM creatine phosphate, 12% (v/v) glycerol, 0.66 mM each of ATP, GTP and CTP, 0.01 mM UTP and 0.5 μCi [α-^32P]UTP (5000 Ci/mmol). After incubation for 60 min at 30° C., RNA was extracted and analyzed on non-denaturing 5% polyacrylamide gels
TIF-IA was immunopurified from untransfected NIH3T3 cells or from HEK293T cells overexpressing FLAG-tagged TIF-IA. 4×10^6 cells were lysed in 0.8 ml IP buffer (20 mM Tris-HCl [pH 7.4], 200 mM NaCl, 2 mM EDTA, 2 mM EGTA, 1% Triton X-100, 0.5 mM PMSF, 1 μg/ml aprotinin, 5 μg/ml leupeptin and 1 μg/ml pepstatin A), centrifuged at 10,000 g for 30 min, and the supernatants were incubated for 4 hr at 4° C. with either 10 μg anti-TIF-IA antibodies bound to 20 μl protein G-agarose or with anti-FLAG (M2) agarose (Sigma-Aldrich Corp., Missouri, USA). The immunocomplexes were successively washed with buffer AM (20 mM Tris-HCl [pH 8.0], 5 mM MgCl2, 0.1 mM EDTA, 20% glycerol) containing 400 and 100 mM KCl, respectively. The amount and purity of TIF-IA was estimated on silver-stained polyacrylamide gels and similar amounts of bead-bound TIF-IA were used in in vitro transcription assays. GST fusion proteins were expressed in E. coli BL21(DE3) and purified on Glutathione-Sepharose 4B according to the manufacturer's instructions.
To assess the functional relevance of S633 and S649 phosphorylation on transcriptional activity, the respective S→A and S→D single or double point mutants were purified from transfected cells and assayed for their capability to rescue transcription of extracts from density-arrested cells. […] Thus, phosphorylation of TIF-IA at S649 and S633 is required for transcriptional activity.
Phosphorylation of peptide a should inhibit TIF-IA activity, while phosphorylation of peptide b, e.g. S44, should augment TIF-IA activity.

[2] = test system: Pol I; test: Co-immunoprecipitation of Pol I with TIF-IA mutants from HEK293T cells; type: binding, human
Procedure: (§2) (B) A mutant that mimics phosphorylation of TIF-IA at S199 fails to interact with Pol I and TIF-IB. FLAG-tagged wild-type TIF-IA or the indicated point mutants were overexpressed in HEK293T cells and immunoprecipitated from cell lysates with anti-FLAG antibodies (M2 agarose). Co-precipitated Pol I and TIF-IB/SL1 were visualized on Western blots with anti-RPA116 and anti-TAFI110 antibodies.
(§3) Immunoprecipitations were carried out from human cells overexpressing FLAG-tagged TIF-IA. Cells were lysed in IP buffer, cleared by centrifugation at 10,000×g for 30 min, and the supernatants were incubated for 4 hr at 4° C. with anti-FLAG (M2) agarose (Sigma). To analyze the interaction of TIF-IA with TIF-IB/SL1, the immunoprecipitates were washed with IP buffer and TIF-IB/SL1 was visualized on immunoblots with α-TAFI110 antibodies. To monitor the interaction of TIF-IA with Pol I, the immunoprecipitates were washed with IP buffer containing 600 mM NaCl and Pol I was analyzed on Western blots using antibodies against the second largest subunit of Pol I (RPA116) or PAF67 (Seither et al., J. Biol. Chem. 382 (2001), 1163-1170).
(§4) Given the importance of mTOR-mediated alterations in the phosphorylation pattern on TIF-IA activity, one could predict that either phosphorylation of S199, dephosphorylation of S44 or both regulate the interaction of TIF-IA with the Pol I transcription apparatus. It was therefore examined whether the S→A or S→D point mutant(s) were capable of interacting with Pol I and/or TIF-IB/SL1. For this, TIF-IA was precipitated from cells overexpressing either FLAG-tagged wild-type TIF-IA or the respective S199 and S44 mutant(s), and co-precipitated Pol I and TIF-IB/SL1 were visualized on Western blots.

[3] = test system: TIF-IB/SL1; test: Co-immunoprecipitation of TIF-IB/SL1 with TIF-IA mutants from HEK293T cells; type: binding, human
Procedure: as §2, §3, §4

[4] = test system: Pol I transcription; test: In vitro transcription: TIF-IA mutants added to nuclear extract from exponentially growing FM3A cells; type: biochemical, murine; conditions: 20 and 40 ng added to 15 ug nuclear extract
Procedure: 20 and 40 ng of the indicated TIF-IA mutants were added to 15 ug nuclear extract from exponentially growing FM3A cells and rDNA transcription was assayed.
as §1
Given that phosphorylation of TIF-IA at serine 649 is essential for transcription, excess of TIF-IAS649A should impair Pol I transcription. To test this, we examined the effect of exogenous wild-type and mutant TIF-IA on transcriptional activity of extracts from exponentially growing cells.

[5] = test system: HEK293T cells; test: Quantitative fluorimetric viability assay with calcein-AM; type: cell-based; conditions: 24, 36, 48 and 60 hr after transfection; 2 μM calcein-AM
Procedure: (B) Quantitative fluorimetric viability assay with calcein-AM. HEK293T cells were transfected with TIF-IA or the indicated point mutants. […] Viable cells were measured 24, 36, 48 and 60 hr after transfection by incubation with […] calcein-AM. The gradual increase in fluorescence intensity was recorded with a fluorescence multi-well plate reader for 20 min with an excitation wavelength of 485 nm and an emission wavelength of 530 nm. The proliferation rate of mock-transfected cells and cells overexpressing TIF-IA is shown at the left. Plots show the accumulation of calcein fluorescence (arbitrary units) against time. Growth rates calculated from linear regression curves are shown at the right. Values are presented as the mean±SD from three independent experiments performed in duplicates.
Conversion of calcein-AM (calcein acetoxymethyl ester, (CN Bioscience GmbH, Bad Soden, Germany) to calcein was used to measure cell proliferation. 12 hr after transfection, HEK293T cells were seeded to 96-well micro-plates at 1×10^4 cells/well. After 24, 36, 48 and 60 hr, cells were washed with PBS, incubated with 2 μM calcein-AM, and the gradual increase in fluorescence intensity within the cells was recorded by a fluorescence multi-well plate reader (CytoFluor Series 4000/TC, PerSeptive Biosystems, (Applied Biosystems, Forster City, USA) for 20 min in 1 min intervals. Excitation wavelength used for measurements of fluorescence was 485 nm with a bandwidth of 20 nm; emission wavelength was 530 nm with a bandwidth of 25 nm. Under the experimental conditions used, there is a direct correlation between the accumulation ratio of intracellular calcein fluorescence and the number of viable cells. The data from three independent experiments were analyzed by Sigmaplot and expressed as the mean±standard deviation. For statistical analysis, student's t test was used. Differences with a P<0.01 were considered statistically significant.
Given the functional significance of ERK/RSK-directed TIF-IA phosphorylation on Pol I transcription, mutations that enhance or abrogate TIF-IA activity may have a positive or negative effect on cell growth. To test this, HEK293T cells were transfected with cDNAs encoding wild-type or mutant TIF-IA which harbor single or double point mutations at S649 and S633. The expression of TIF-IA was estimated on Western blots and the cellular growth rate was measured by calcein-AM staining. Calcein-AM is a non-fluorescent, hydrophobic compound that is rapidly hydrolyzed by intracellular esterases releasing hydrophilic fluorescent calcein. Thus, cellular calcein fluorescence correlates with the amount of viable cells. […] Cells expressing FLAG-tagged wild-type or mutant TIF-IA were stained with FITC-conjugated anti-FLAG antibodies, identified by FACS and cell numbers were calculated by measuring the ratio of stained cells versus an internal standard. […] Conversely, the number of cells expressing TIF-IAS649A was 33% lower than the control. […] Taken together, the results reveal a striking correlation between phosphorylation of TIF-IA at serine 649, cellular rRNA synthetic activity and cell cycle progression.

[6] = S633/S649 mutants, 20 and 40 ng
[7] = S199 and S44 mutants, 30 and 60 ng

Row | Substance | capability to rescue transcription of extracts from density-arrested cells [1, 6] | capability to rescue transcription of extracts from density-arrested cells [1, 7] | interaction with Pol I (co-precipitated RPA116) [2] | interaction with TIF-IB/SL1 (co-precipitated TAFI110) [3] | effect on transcriptional activity of extracts from exponentially growing cells [4] | cellular growth rate by calcein-AM staining [5]
1 | S633D: TIF-IA point mutant, serine 633 replaced by aspartic acid | less active than wild-type TIF-IA |  |  |  |  | 
2 | TIF-IAS199A: the mutant in which S199 was changed to alanine |  | activated Pol I transcription like wild-type TIF-IA | interacted with both Pol I and TIF-IB/SL1 | interacted with both Pol I and TIF-IB/SL1 |  | 
3 | TIF-IAS199D: TIF-IA mutant, replacement of S199 by aspartic acid |  | abolished TIF-IA activity | no association of either Pol I or TIF-IB/SL1 could be detected | no association of either Pol I or TIF-IB/SL1 could be detected |  | 
4 | TIF-IAS633A: TIF-IA point mutant, serine 633 replaced by alanine | abolished TIF-IA activity |  |  |  | suppressed transcription well below the basal level | 
5 | TIF-IAS633AS649A: TIF-IA double mutant, serines 633 and 649 replaced by alanine | abolished TIF-IA activity |  |  |  |  | impaired cell growth
6 | TIF-IAS633DS649D: TIF-IA double mutant, serines 633 and 649 replaced by aspartic acid | TIF-IA activity was increased |  |  |  |  | accelerated cell growth
